Assay results reported in patent US20120196892A1, “NOVEL CASPASE-2 INHIBITORS” (CHIESI FARMACEUTICI S.p.A., priority 2011, published 2012).

How the values were obtained:
[1] = molecular target: T1, human recombinant caspase-2 (Homo sapiens, UniProt P42575); assay: in vitro caspase-2 inhibition activity (Ac-VDVAD-AMC fluorogenic substrate cleavage); type: biochemical; conditions: for IC50: 30 minutes pre-incubation with inhibitors 0.001 to 2 μM, 200 μM Ac-VDVAD-AMC, read after 2 hours at 37° C., mean of three independent runs, read-out: IC50 (concentration which inhibits 50% of caspase activity); for caspase-2 inhibition activity (in words), comparative compounds: compounds used for comparative purposes, structurally related to TRP601
T1 construct: purchased BIOMOL, Plymouth, Pa., USA
T1 sequence (P42575 170-325 limits assumed): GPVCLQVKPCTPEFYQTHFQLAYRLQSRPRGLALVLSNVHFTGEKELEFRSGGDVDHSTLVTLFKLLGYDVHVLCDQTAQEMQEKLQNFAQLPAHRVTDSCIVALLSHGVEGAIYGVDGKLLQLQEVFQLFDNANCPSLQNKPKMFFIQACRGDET
T1 sequence (P42575 348-452 limits assumed): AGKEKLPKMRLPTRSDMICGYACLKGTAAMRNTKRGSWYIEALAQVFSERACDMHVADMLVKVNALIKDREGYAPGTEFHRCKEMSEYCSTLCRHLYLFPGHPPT
Experimental: The in vitro caspase-2 inhibition activity of 2-quinolinylcarbonyl-(S)-Valinyl-(S)-Aspartyl (methyl ester)-(S)-Valinyl-(S)-Alanyl-(R,S)-Aspartyl (methyl ester) 2,3,5,6-tetrafluorophenyl ester (TRP 701) in comparison to other compounds was evaluated according to the following protocol. Samples of human recombinant caspase-2 (25-50U, BIOMOL, Plymouth, Pa., USA) were pre-incubated for 30 minutes with inhibitors (0.001 to 2 μM) in final 100 μl final assay buffer (50 mM HEPES, pH 7.4, 100 mM NaCI, 0.1% CHAPS, 10 mM DTT, 1 mM EDTA, 10% glycerol) and then mixed with 200 μM of the fluorogenic caspase substrates (BIOMOL) Ac-VDVAD-AMC. An IC50 value corresponding to the concentration which inhibis 50% of caspase activity was determined from the dose-response sigmoid curve using the steady-state fluorescence approach. The cleavage of AMC-based substrate by human recombinant caspase-2 was measured after 2 hours at 37° C. on a fluorescence microplate reader by monitoring emission at 510 nm upon excitation at 405 nm.
Curves are the mean of three independent runs.

[2] = molecular target: T1, human recombinant caspase-2; conditions: disclosed in WO 2005/105829; cited from earlier work

caspase-2 selectivity (in words) [1]	caspase-2 inhibition activity (in words), comparative compounds [1]	Compound	IC50 [1] [nM]	caspase-2 selectivity (in words), background statement [2]
selective caspase-2 inhibitor	–	COC(=O)CC(NC(=O)[C@H](C)NC(=O)[C@@H](NC(=O)[C@H](CC(=O)OC)NC(=O)[C@@H](NC(=O)c1ccc2ccccc2n1)C(C)C)C(C)C)C(=O)COc1c(F)c(F)cc(F)c1F (mixture of isomers) [TRP 701, 5-(2,3,5,6-tetrafluoro-phenoxy)-3(R,S)-{2(S)-[2(S)-(3-methoxycarbonyl-2(S)-{3-methyl-2(S)-[(quinoline-2-carbonyl)-amino]-butyrylamino}-propionylamino)-3-methyl-butyrylamino]-propionylamino}-4-oxo-pentanoic acid methyl ester]	60 to 90	–
–	inactive	CC(C)[C@H](NC(=O)c1ccc2ccccc2n1)C(=O)O [M3, 2-quinolinylcarbonyl-S-Valine]	–	–
–	inactive	quinoline-2-carbonyl-(S)-Val-(S)-Asp(OMe)-(S)-Val-(S)-Ala-(R,S)-Ala((R,S)-CH2OC6H3(2,6-F2)) [TRP 600]	–	–
–	–	COC(=O)CC(NC(=O)[C@H](C)NC(=O)[C@@H](NC(=O)[C@H](CC(=O)OC)NC(=O)[C@@H](NC(=O)c1ccc2ccccc2n1)C(C)C)C(C)C)C(=O)COc1c(F)cccc1F (mixture of isomers) [TRP 601, 5-(2,6-difluoro-phenoxy)-3(R,S)-{2(S)-[2(S)-(3-methoxycarbonyl-2(S)-{3-methyl-2(S)-[(quinoline-2-carbonyl)-amino]butyrylamino}-propionylamino)-3-methyl-butyrylamino]-propionylamino}-4-oxo-pentanoic acid methyl ester]	60 to 90	selective caspase-2 inhibitor
